Test results reported in patent publication US7705029B2 (Synta Pharmaceuticals Corp., priority 2004, dated 2010).

What follows are compounds tested on IL-2 production in a Human Jurkat Cell Line (assay: Inhibition of IL-2 production in PHA-stimulated Jurkat cells (IL-2 ELISA)). Settings: Homo sapiens, Jurkat, 20 h, read-out: IC50 (concentration at which IL-2 release is inhibited by 50%).
Type: cell-based
Protocol: Jurkat cells (ATCC, Cat# TIB-152) were grown in RPMI1640 medium (ATCC, Cat# 30-2001) containing 10% of FBS (ATCC, Cat# 30-2020). For compound screening, Jurkat cells were plated in 96-well plates at a density of 0.5 million cells per well in RPMI1640 medium containing 1% of FBS. Then, various concentrations of each test compound were added to the cell plates followed by addition of PHA (Sigma, Cat# L-9017) at a final concentration of 2.5 μg/ml to stimulate IL-2 production. Cells were then incubated at 37° C. (+5% CO2) for 20 hours before ELISA assay. After 20 hours incubation, cell plates were centrifuged at 500-800 g for 5 minutes and the supernatants was collected for IL-2 detection using the human IL-2 ELISA kit purchased from Cell Sciences (Cat# 851.500.020). The ELISA assay for IL-2 production was done in 96-well plates using a protocol provided by Cell Sciences.
The IC50 (i.e., the concentration at which IL-2 release is inhibited by 50%) was determined and the results are shown in the Table. […] The designation “A” means an IC50 less than 0.010 μM; the designation B means an IC50 between 0.010 and 1.0 μM; and the designation “C” mean an IC50 greater than 1 μM.

SMILES | IC50
N#C/C(=C\c1ccc(-n2nc(C(F)(F)F)cc2OC(F)F)cc1)c1cccc(F)c1F [Compound 1] | 0.01 to 1 µM
N#CC(=Cc1ccc(-n2nc(C(F)(F)F)cc2OC(F)F)cc1)c1ccccc1F [Compound 2, 3-[4-(5-Difluoromethoxy-3-trifluoromethyl-pyrazol-1-yl)-phenyl]-2-(2-fluoro-phenyl)-acrylonitrile] | 0.01 to 1 µM
N#CC(=Cc1ccc(-n2nc(C(F)(F)F)cc2OC(F)F)cc1)c1cc(F)ccc1F [Compound 3, 3-[4-(5-Difluoromethoxy-3-trifluoromethyl-pyrazol-1-yl)-phenyl]-2-(2,5-difluoro-phenyl)-acrylonitrile] | 0.01 to 1 µM
N#C/C(=C\c1ccc(-n2nc(C(F)(F)F)cc2C(F)(F)F)cc1)c1cccc(F)c1F [Compound 4, 3-[4-(3,5-Bis-trifluoromethyl-pyrazol-1-yl)-phenyl]-2-(2,3-difluoro-phenyl)-acrylonitrile] | < 0.01 µM
N#CC(=Cc1ccc(-n2nc(C(F)(F)F)cc2C(F)(F)F)cc1)c1cc(F)ccc1F [Compound 5, 3-[4-(3,5-Bis-trifluoromethyl-pyrazol-1-yl)-phenyl]-2-(2,5-difluoro-phenyl)-acrylonitrile] | < 0.01 µM
N#CC(=Cc1ccc(-n2nc(C(F)(F)F)cc2C(F)(F)F)cc1)c1ccccc1F [Compound 6, 3-[4-(3,5-Bis-trifluoromethyl-pyrazol-1-yl)-phenyl]-2-(2-fluoro-phenyl)-acrylonitrile] | 0.01 to 1 µM
N#CC(=Cc1ccc(-n2nc(C(F)(F)F)cc2C(F)(F)F)cc1)c1ccc(F)c(F)c1F [Compound 8, 3-[4-(3,5-Bis-trifluoromethyl-pyrazol-1-yl)-phenyl]-2-(2,3,4-trifluoro-phenyl)-acrylonitrile] | 0.01 to 1 µM
N#CC(=Cc1ccc(-n2nc(C(F)(F)F)cc2C(F)(F)F)cc1)c1c(F)ccc(F)c1F [Compound 9, 3-[4-(3,5-Bis-trifluoromethyl-pyrazol-1-yl)-phenyl]-2-(2,3,6-trifluoro-phenyl)-acrylonitrile] | < 0.01 µM
N#CC(=Cc1ccc(-n2nc(C(F)(F)F)cc2C(F)(F)F)cc1)c1cc(F)c(F)c(F)c1 [Compound 10, 3-[4-(3,5-Bis-trifluoromethyl-pyrazol-1-yl)-phenyl]-2-(3,4,5-trifluoro-phenyl)-acrylonitrile] | 0.01 to 1 µM
N#CC(=Cc1ccc(-n2nc(C(F)(F)F)cc2C(F)(F)F)cc1)c1cc(F)c(F)cc1F [Compound 12, 3-[4-(3,5-Bis-trifluoromethyl-pyrazol-1-yl)-phenyl]-2-(3,4,6-trifluoro-phenyl)-acrylonitrile] | 0.01 to 1 µM
Cc1cc(C(F)(F)F)n(-c2ccc(/C=C(\C#N)c3cc(F)ccc3F)cc2)n1 [Compound 15, 2-(2,5-Difluoro-phenyl)-3-[4-(3-methyl-5-trifluoromethyl-pyrazol-1-yl)-phenyl]-acrylonitrile] | 0.01 to 1 µM
N#CC(=Cc1ccc(-n2ccc(C(F)(F)F)n2)cc1)c1ccc(F)cc1F [Compound 16, 2-(2,4-Difluoro-phenyl)-3-[4-(3-trifluoromethyl-pyrazol-1-yl)-phenyl]-acrylonitrile] | > 1 µM
Cc1cc(C(F)(F)F)n(-c2ccc(C=C(C#N)c3cccc(F)c3F)cc2)n1 [Compound 18, 2-(2,3-Difluoro-phenyl)-3-[4-(3-methyl-5-trifluoromethyl-pyrazol-1-yl)-phenyl]-acrylonitrile] | 0.01 to 1 µM
Cc1cc(C(F)(F)F)n(-c2ccc(C=C(C#N)c3ccc(F)cc3F)cc2)n1 [Compound 19, 2-(2,4-Difluoro-phenyl)-3-[4-(3-methyl-5-trifluoromethyl-pyrazol-1-yl)-phenyl]-acrylonitrile] | 0.01 to 1 µM
Cc1cc(C(F)(F)F)n(-c2ccc(C=C(C#N)c3c(F)cccc3F)cc2)n1 [Compound 20, 2-(2,6-Difluoro-phenyl)-3-[4-(3-methyl-5-trifluoromethyl-pyrazol-1-yl)-phenyl]-acrylonitrile] | 0.01 to 1 µM
Cc1cc(C(F)(F)F)n(-c2ccc(C=C(C#N)c3ccc(F)c(F)c3)cc2)n1 [Compound 21, 2-(3,4-Difluoro-phenyl)-3-[4-(3-methyl-5-trifluoromethyl-pyrazol-1-yl)-phenyl]-acrylonitrile] | 0.01 to 1 µM
Cc1cc(C(F)(F)F)n(-c2ccc(C=C(C#N)c3cc(F)cc(F)c3)cc2)n1 [Compound 22, 2-(3,5-Difluoro-phenyl)-3-[4-(3-methyl-5-trifluoromethyl-pyrazol-1-yl)-phenyl]-acrylonitrile] | 0.01 to 1 µM

SMILES | IC50
N#CC(=Cc1ccc(-n2cccn2)cc1)c1ccccc1 [Compound 23, 2-Phenyl-3-(4-pyrazol-1-yl-phenyl)-acrylonitrile] | > 1 µM
N#CC(=Cc1ccc(-n2cccn2)cc1)c1cc(F)ccc1F [Compound 24, 2-(2,5-Difluoro-phenyl)-3-(4-pyrazol-1-yl-phenyl)-acrylonitrile] | > 1 µM
N#C/C(=C\c1ccc(-n2nc(C(F)(F)F)cc2C(F)(F)F)cc1)C(=O)c1cccc(F)c1F [Compound 25, 3-[4-(3,5-Bis-trifluoromethyI-pyrazol-1-yl)-phenyl]-2-(2,3-difluoro-benzoyl)-acrylonitrile] | > 1 µM
N#CC(=Cc1ccc(-n2ccc(-c3cccs3)n2)cc1)C(=O)c1ccccc1 [Compound 28, 2-Benzoyl-3-[4-(3-thiophen-2-yl-pyrazol-1-yl)-phenyl]-acrylonitrile] | > 1 µM
Cc1ccn(-c2ccc(C=C(C#N)C(=O)c3ccco3)cc2)n1 [Compound 29, 2-(Furan-2-carbonyl)-3-[4-(3-methyl-pyrazol-1-yl)-phenyl]-acrylonitrile] | > 1 µM
N#CC(=Cc1ccc(-n2cccn2)cc1)C(=O)c1ccccc1 [Compound 30, 2-Benzoyl-3-(4-pyrazol-1-yl-phenyl)-acrylonitrile] | > 1 µM
N#CC(=Cc1ccc(-n2ccc(-c3ccccc3)n2)cc1)C(=O)c1ccco1 [Compound 31, 2-(Furan-2-carbonyl)-3-[4-(3-phenyl-pyrazol-1-yl)-phenyl]-acrylonitrile] | > 1 µM
N#CC(=Cc1ccc(-n2nc(C(F)(F)F)cc2C(F)(F)F)cc1)C(=O)c1ccco1 [Compound 33, 3-[4-(3,5-Bis-trifluoromethyl-pyrazol-1-yl)-phenyl]-2-(furan-2-carbonyl)-acrylonitrile] | > 1 µM
N#CC(=Cc1ccc(-n2nc(C(F)(F)F)cc2C(F)(F)F)cc1)C(=O)c1ccc(F)cc1F [Compound 34, 3-[4-(3,5-Bis-trifluoromethyl-pyrazol-1-yl)-phenyl]-2-(2,4-difluoro-benzoyl)-acrylonitrile] | > 1 µM
N#CC(=Cc1ccc(-n2ccc(-c3ccccc3)n2)cc1)C(=O)c1cccc(F)c1F [Compound 35, 2-(2,3-Difluoro-benzoyl)-3-[4-(3-phenyl-pyrazol-1-yl)-phenyl]-acrylonitrile] | > 1 µM
N#CC(=Cc1ccc(-n2ccc(C(F)(F)F)n2)cc1)C(=O)c1ccc(F)cc1F [Compound 37, 2-(2,4-Difluoro-benzoyl)-3-[4-(3-trifluoromethyl-pyrazol-1-yl)-phenyl]-acrylonitrile] | > 1 µM
N#CC(=Cc1ccc(-n2ccc(C(F)(F)F)n2)cc1)C(=O)c1cccc(F)c1F [Compound 38, 2-(2,3-Difluoro-benzoyl)-3-[4-(3-trifluoromethyl-pyrazol-1-yl)-phenyl]-acrylonitrile] | > 1 µM
Cc1cc(C(F)(F)F)n(-c2ccc(C=C(C#N)C(=O)c3ccc(F)cc3F)cc2)n1 [Compound 39, 2-(2,4-Difluoro-benzoyl)-3-[4-(3-methyl-5-trifluoromethyl-pyrazol-1-yl)-phenyl]-acrylonitrile] | > 1 µM
Cc1cc(C(F)(F)F)n(-c2ccc(C=C(C#N)C(=O)c3cc(F)ccc3F)cc2)n1 [Compound 40, 2-(2,5-Difluoro-benzoyl)-3-[4-(3-methyl-5-trifluoromethyl-pyrazol-1-yl)-phenyl]-acrylonitrile] | > 1 µM
N#CC(=Cc1ccc(-n2ccc(C(F)(F)F)n2)cc1)C(=O)c1cc(F)ccc1F [Compound 41, 2-(2,5-Difluoro-benzoyl)-3-[4-(3-trifluoromethyl-pyrazol-1-yl)-phenyl]-acrylonitrile] | > 1 µM
N#CC(=Cc1ccc(-n2ccc(C(F)(F)F)n2)cc1)c1cc(F)ccc1F [Compound 42, 2-(2,5-Difluoro-phenyl)-3-[4-(3-trifluoromethyl-pyrazol-1-yl)-phenyl]-acrylonitrile] | > 1 µM
N#CC(=Cc1cccc(-n2nc(C(F)(F)F)cc2C(F)(F)F)c1)c1cccc(F)c1F [Compound 43, 3-[3-(3,5-Bis-trifluoromethyl-pyrazol-1-yl)-phenyl]-2-(2,3-difluoro-phenyl)-acrylonitrile] | > 1 µM

Same assay, conditions: Jurkat cells, PHA 2.5 μg/ml, 20 hours incubation, human IL-2 ELISA of supernatant; read-out: IC50 (concentration at which IL-2 release is inhibited by 50%)

IC50 | SMILES
> 1 µM | N#CC(=Cc1ccc(-n2nc(C(F)(F)F)cc2C(F)(F)F)cc1Cl)c1cccc(F)c1F [Compound 13, 3-[4-(3,5-Bis-trifluoromethyl-pyrazol-1-yl)-2-chloro-phenyl]-2-(2,3-difluoro-phenyl)-acrylonitrile]
> 1 µM | N#CC(=Cc1ccccc1-n1nc(C(F)(F)F)cc1C(F)(F)F)c1cccc(F)c1F [Compound 14, 3-[2-(3,5-Bis-trifluoromethyl-pyrazol-1-yl)-phenyl]-2-(2,3-difluoro-phenyl)-acrylonitrile]
